# In patent US5578643A, “Protective prostaglandins for use in conjunction with chemotherapeutic agents” (Loyola University of Chicago, priority 1994, dated 1996):
# Assays:
# [1] = test system: mice given graded doses of doxorubicin (DOX); assay: DOX dose response: dose killing 50% of the mice within 15 days, alone or after PG or WR-2721; assay type: in vivo; conditions: for effect on DOX dose necessary to kill 50% of mice: 10 μg of 16,16-dimethyl PGE2 or 25 μg of SC-44932, 2 hours before graded doses of doxorubicin, n=8, FIG. 6
# Procedure: The open triangle is data of a group of 10 mice given WR-2721, 30 minutes before administration of 0.75 mg of doxorubicin. (The lines are computer fit spline curves through the data; n=24 per data point on each curve).
# (The lines are computer fit spline curves through the data; n=8 per data point for each of the PG-treated groups and n=24 for the data points of mice treated only with doxorubicin).
# It was observed that all acute deaths due to DOX treatment alone occurred before day 15 following DOX administration. Subsequently, the parameter of death within 15 days was used to investigate the DOX dose response administered IP alone or 2 hours after 40 μg of misoprostol was given subcutaneously (sc). In this study, a dose of about 0.5 mg of DOX/average 30 gram mouse, killed 50% of the DOX treated mice (see FIG. 5).
# A comparison of PG-induced protection was made to that of protection by WR-2721; an agent reported to protect from some chemotherapeutic agents. […] Two other PGs representing different structural prostaglandins than misoprostol were also investigated for their effectiveness in protecting mice from mortality resulting from administration of graded doses of DOX.
# [2] = test system: hair medullary cells; assay: Number of hair medullary cells four days after a single dose of chemotherapeutic agent, with or without misoprostol; assay type: in vivo, CF1 mice; conditions: 4 days after single IP dose: DOX 0.3, CTX 1, VP-16-213 0.3, ARA-C 8, HU 10, 5 FU 1.0, Methotrexate 0.2, Bleomycin 0.05, Mitomycin C 0.01, Cisplatin 0.25, Carboplatin 1.0, Taxol 0.6 mg; untreated control 51.4 ± 0.6
# Procedure: FIG. 13 is a representation of photographs of shafts of hair showing a single line of medullary cells in control mice (Panel A) and in mice 4 days after they were given a single dose of 0.3 mg of VP-16-213 (Panel B).
# Number of Hair Medullary Cells as a Measure of Protection from Injury caused by Chemotherapeutic Agents.
# The shafts of hair in CF1 mice contain usually a single line of about 50±1 medullary cells. These cells are very sensitive to cytotoxic agents (see Potten, C. S., Geng, L., and Taylor, P., Hair Medullary Cell Counts: a Simple and Sensitive Indicator of Radiation Exposure. Int. J Radiat. Biol., 57:13-21, 1990). Single doses of cytotoxic chemotherapeutic agents greatly reduce the number of medullary cells which reach a nadir at 4 days after administration of the agent. This cell system has been used for the evaluation of misoprostol-induced protection from several chemotherapeutic agents.
# CF1 mice had hair from an area of their rump plucked to induce anagen growth as described in Example 2 above. […] In separate groups, mice received misoprostol (40 μg/average 30 g mouse) either subcutaneously or applied topically 2 hours before each of the chemotherapeutic agents listed above. Untreated controls were used since it has been previously determined that water, or 2% EtOH in water, or phosphate buffer at pH=6.8 (the vehicles for the all agents used) had no influence on the cell counts compared to untreated controls. Twenty-five hairs from each animal of each group were dissected from Feulgen stained samples taken from the mice 4 days after treatment.
# The number of medullary cells was averaged (n=4) for each treatment group and the results for all chemotherapeutic agents tested to date are presented in Table I.
# [3] = test system: skin (hair follicles); assay: Hair count after a single dose of doxorubicin, with or without PGE1; assay type: in vivo, mice; conditions: 10 μg of PGE1 2 hours before 0.5 mg doxorubicin; FIG. 11
# Procedure: FIG. 11 is a graph illustrating the number of hairs per 4.16 sq. mm of skin area in control mice, in mice that received 0.5 mg of doxorubicin or in mice that received 10 μg of PGE1 2 hours before receiving 0.5 mg of doxorubicin. (Data are the means of 6 mice (2 field/mouse)±SEM.)
# (§1) The hair counts from skin fields of control (open bar), DOX (striped bar) and misoprostol+DOX (filled bar) treated mice are shown in FIG. 9. […] Misoprostol given before DOX increased the hair count to 213±7.8. […] Since prostaglandin receptors are not evenly distributed, protection may not be evenly distributed. PGE1 is associated with the skin (hair follicles) but not with the gut. The ability of PGE1 to protect the skin (hair follicles) and the small intestine from cell injury caused by doxorubicin was tested. […] A single dose of 0.5 mg of doxorubicin reduced this count to 43±8. Administration of 10 μg of PGE1 prior to administration of doxorubicin provided protection as indicated by the increase in the number of hairs to 111±12. […] More evidence is presented in Example 3.
# [4] = test system: small intestine; assay: Intestinal microcolonies in DOX treated mice, with or without PGE1; assay type: in vivo; conditions: 10 μg of PGE1 (b62 prints .rho.g) 2 hours before 0.5 mg doxorubicin; FIG. 12
# Text: (Data are the means of 4 mice±1 SEM.)
# as §1
# [5] = test system: kidney; conditions: bolus infusions of cisplatin; Glover et al.; cited from earlier work
# [6] = test system: humans; conditions: WR-2721 in large protective doses; cited from earlier work
compound,measurement,setting,value
"C/C=C/C=C/[C@](C)(O)C/C=C/C1C(O)CC(=O)C1CC/C=C\CCC(=O)OC (mixture of isomers) [SC-44932, (±) methyl, 7-[3α-hydroxy-2β-(4R-hydroxy-4-methyl-1E, 5E,7E-nonatrienyl)-5-oxo-1α-cyclopentyl]-4-Z-heptenoate]",effect on DOX dose necessary to kill 50% of mice,[1],increased the DOX dose necessary to kill 50% of a population (n=8) of mice
"CCCCC(C)(C)[C@H](O)/C=C/[C@H]1[C@H](O)CC(=O)[C@@H]1C/C=C\CCCC(=O)O [16,16-dimethyl PGE2, 16,16-dimethyl prostaglandin E2]",effect on DOX dose necessary to kill 50% of mice,[1],increased the DOX dose necessary to kill 50% of a population (n=8) of mice
"O=P1(N(CCCl)CCCl)NCCCO1 (centres unmarked) [CTX, cytoxan]","Number of Medullar Cells ± 1 SEM, chemotherapeutic agent IP alone",[2],22.1 ± 1.9
"N.N.O=C([O-])C1(C(=O)[O-])CCC1.[Pt+2] [Carboplatin, carboplatin]","Number of Medullar Cells ± 1 SEM, chemotherapeutic agent IP alone",[2],37.8 ± 2.4
"N.N.[Cl][Pt][Cl] [Cisplatin, cisplatin]","Number of Medullar Cells ± 1 SEM, chemotherapeutic agent IP alone",[2],25.9 ± 1.5
CCCCC[C@H](O)/C=C/[C@H]1[C@H](O)CC(=O)[C@@H]1CCCCCCC(=O)O [PGE1],"number of hairs, PGE1 + doxorubicin",[3],111±12 hairs per 4.16 sq. mm
same,"number of intestinal colonies per circumference, PGE1 + DOX",[4],did not change
"NCCCNCCSP(=O)(O)O [WR-2721, S-2-(3-aminopropylamino) ethylphosphorothioxic acid]",kidney protection from cisplatin injury,[5],protect the kidney from injury caused by bolus infusions of cisplatin
same,protection of mice from DOX by WR-2721,"[1]; WR-2721 30 minutes before 0.75 mg of doxorubicin, n=10, FIG. 5",did not protect mice (n=10) from DOX treatment
same,side effects in humans,[6],"causes hypotension, nausea, and vomiting in humans"
bleomycin,"Number of Medullar Cells ± 1 SEM, chemotherapeutic agent IP alone",[2],30.4 ± 1.4
